In PubChem BioAssay (NCI):
Values joined by “and” are separate entries in the source; they are usually repeats but may differ in a detail not shown here. Equal entries are not always repeated.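 Exposure lasted 48 hours, with cells grown in 96-well plates and compounds tested at five concentrations. Here, GI50 denotes the concentration required for 50% inhibition of growth. TGI marks complete inhibition of growth.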

Key:
Experiment in all cases: NCI-60 cell line screen, 48 h
[1] = test system: SNB-19 CNS
[2] = test system: U251 CNS
[3] = test system: SK-OV-3 ovarian
[4] = test system: CAKI-1 renal
[5] = test system: SK-MEL-5 melanoma
[6] = test system: HCT-15 colon
[7] = test system: OVCAR-5 ovarian
[8] = test system: K-562 leukemia
[9] = test system: UO-31 renal
[10] = test system: UACC-257 melanoma

| SMILES | GI50 [1] [µM] | TGI [1] | GI50 [2] [µM] | TGI [2] | GI50 [3] [µM] | TGI [3] [µM] | GI50 [4] [µM] | TGI [4] | GI50 [5] [µM] | TGI [5] | GI50 [6] [µM] | TGI [6] | GI50 [7] [µM] | TGI [7] | GI50 [8] [µM] | TGI [8] | GI50 [9] [µM] | TGI [9] | GI50 [10] [µM] | TGI [10] |
| --- | --- | --- | --- | --- | --- | --- | --- | --- | --- | --- | --- | --- | --- | --- | --- | --- | --- | --- | --- | --- |
| N#C/C(=C/c1cccs1)c1cccs1 | > 100 | > 100 µM | > 100 | > 100 µM | > 100 | > 100 | > 100 | > 100 µM | > 100 | > 100 µM | > 100 | > 100 µM | > 100 | > 100 µM | > 100 | > 100 µM | > 100 | > 100 µM | > 100 | > 100 µM |
| COc1ccc(S(=O)(=O)N2CCCCC2)cc1NC(=O)c1[nH]c(C)c2c1CCCCC2=O | 3.8 | > 100 µM | 2.29 | 70.4 µM | 2.14 | 44.4 | 0.419 | 56.7 µM | 1.4 | 3.88 µM | 1.15 | > 100 µM | 2.53 | > 100 µM | 1.75 | > 100 µM | 0.379 | 40.7 µM | 0.853 | 24.7 µM |
| COc1cc2c(cc1OCCN1C(=O)c3cccc4cccc(c34)C1=O)N=C[C@@H]1CCCN1C2=O | 37.7 | 30.2 µM and > 100 µM | 14.2 | 12.6 µM and > 100 µM |  | 46.5 | 18.8 | 19.8 µM and 36.2 µM | 13.1 | 15.5 µM and 28.2 µM | 18.6 | 21.4 µM and 40.2 µM | 23.9 | 18.1 µM and 49.9 µM | 7.63 | 10.9 µM and > 100 µM | 16.8 | 15.8 µM and 30.5 µM | 18 | 19 µM and 35.8 µM |
| C=C(C)[C@@H]1CC[C@]2(C)[C@H](CC=C3[C@@H]4CC(C)(C)CC[C@]4(C(=O)OC)CC[C@]32C)[C@@]1(C)CC/C(N)=N/O | 2.21 | 5.73 µM | 1.81 | 3.69 µM | 4.62 | 27.2 | 2.4 | 15.1 µM | 1.77 | 3.23 µM | 2.05 | 5.6 µM | 1.72 | 3.73 µM | 2.47 | > 100 µM | 1.51 | 2.94 µM | 2.01 | 5.34 µM |
| C/C(=C\c1ccccc1)C(O)S(=O)(=O)O (stereo not drawn) |  | > 100 µM |  | > 100 µM |  | > 100 |  | > 100 µM |  | > 100 µM |  | > 100 µM |  | > 100 µM |  | > 100 µM |  | > 100 µM |  | > 100 µM |
| C=CC1(C)/C(=N\O)C(C)(CC)C(=O)N1O (stereo not drawn) |  | > 100 µM |  | > 100 µM |  | > 100 |  | > 100 µM |  | > 100 µM |  | > 100 µM |  | > 100 µM |  | > 100 µM |  | > 100 µM |  | > 100 µM |
| COc1cccc(C(=O)O)c1Cc1cccc2ccccc12 |  | > 100 µM |  | > 100 µM |  | > 100 |  | > 100 µM |  | > 100 µM |  | > 100 µM |  | > 100 µM |  | > 100 µM |  | > 100 µM |  | > 100 µM |
| O=C1c2ccccc2C(=O)c2c1c(NCCNCCO)c1cc[nH]c1c2NCCNCCO | 1.26 | 12.9 µM | 0.739 | 19.7 µM | 2.85 | 13.6 | > 47.1 | > 100 µM | 3.17 | 16.4 µM | > 70.9 | > 100 µM | 3.96 | > 31.3 µM | 1.63 |  | 62.9 | > 100 µM | 7.06 | 29.9 µM |
| CC(C)NCCCNC1=C(Cl)C(=O)c2ccccc2C1=O | 12.8 | 26 µM | 2.7 | 6.82 µM | 15.8 | 29.4 | 5.83 | 20.9 µM | 1.54 | 2.88 µM | 1.95 | 3.96 µM | 14.3 | 31.1 µM | 2.05 | 4.92 µM | 14.4 | 29.2 µM | 1.91 | 3.63 µM |
| CC(=O)[CH-]C(=O)c1ccccc1.CC(=O)[CH-]C(=O)c1ccccc1.CC(C)CCCC(C)[C@H]1CCC2[C@@H]3CCC4C[C@@H]([O-])CC[C@]4(C)C3CC[C@@]21C.CC(C)CCCC(C)[C@H]1CCC2[C@@H]3CCC4C[C@@H]([O-])CC[C@]4(C)C3CC[C@@]21C.Cl.[Ti+4] (stereo partly drawn) | > 25 | > 25 µM | > 25 | > 25 µM | > 25 | > 25 | > 25 | > 25 µM | > 25 | > 25 µM | > 25 | > 25 µM | > 25 | > 25 µM | > 25 | > 25 µM | > 25 | > 25 µM | > 25 | > 25 µM |
